Laboratory results taken from patent US20080118480A1, “Methods and Compositions for Directing Migration of Neural Progenitor Cells” (IMCLONE SYSTEMS INCORPORATED, priority 2003, published 2008).
Entries after “also recorded” stand apart in the source; their conditions may differ.

How the values were obtained:
Type in all cases: cell-based, rat
[1] = system: VEGFR-2; assay: Immunoprecipitation and Western blot of VEGFR-2 protein
Procedure: Neural progenitor cells from the normal cultures in FGF-2 or from cultures starved of FGF-2 for 12 hours were lysed and VEGFR-2 protein was immunoprecipitated from cell lysates with a polyclonal antibody (sc-504; Santa Cruz Biochemicals, Santa Cruz, Calif.) recognizing amino aids 1158 to 1345 in the mouse VEGFR2 carboxy terminus. Western blot was performed with a polyclonal anti-VEGFR-2 antibody (sc-315; Santa Cruz Biochemicals) recognizing the mouse carboxy terminal amino acids 1348 to 1367.

[2] = system: neural progenitor cells; assay: Dunn chamber chemotaxis / chemokinesis of neural progenitor cells
Procedure: The SVZ was dissected from coronal slices of newborn rat brains, dissociated mechanically and trypsinized according to methods known in the art (See Lim et al. “Noggin antagonizes BMP signaling to create a niche for adult neurogenesis, Neuron, 28: 713-726 (2000), which is incorporated by reference herein). SVZ progenitors were purified using percoll gradient centrifugation according to methods known in the art (See Lim et al., 2000) and seeded onto matrigel (0.24 mg/cm^2)- or laminin-coated coverslips. Isolated cells were allowed to grow in Neurobasal medium supplemented with 20 ng/ml FGF-2, 1×B27, 2 mM […], 1 mM sodium pyruvate, 2 mM N-acetyl-cysteine, and 1% penicillin-streptomycin. Cultures were fed every three days with fresh medium containing 20 ng/ml FGF-2.
[…] Cell Sci., 99:769-775 (1991); Allen et al., “A role for Cdc42 in macrophage chemotaxis,” J. Cell. Biol, 141:1147-1157 (1998), both of which are incorporated by reference herein). Recombinant human VEGF-CΔNΔC (Dr. M. Skobe, Cancer Center, Mount Sinai Medical Center, New York) was used in some experiments. The Dunn chamber is made from a Helber bacteria counting chamber by grinding a circular well in the central platform to leave a 1 mm wide annular bridge between the inner and the outer well. Chemoattractants added to the outer well of the device will diffuse across the bridge to the inner blind well of the chamber and form a gradient. This apparatus allows one to determine the direction of migration in relation to the direction of the gradient.
Coverslips with cells were inverted onto the chamber and cell migration was recorded through the annular bridge between the concentric inner and outer wells, and a period of 2 hours was chosen to assess cell migration. In these studies, a systematic sampling was applied and all cells within the migration region of the chamber were recorded and analyzed. Data were recorded every 10 minutes using a ZEISS 10× objective via a HAMAMATSU CCD video camera using Openlab software.
[…] For chemokinesis experiments, VEGF (20 ng/ml) or FGF-2 (20 ng/ml) was added to both outer and inner wells of the Dunn chamber.
Directionality of cell movement was analyzed using scatter diagrams of cell displacement. The diagrams were oriented so that the position of the outer well of the chamber was vertically upwards (y direction). Each point represents the final positions of the cells at the end of the recording period where the starting point of migration is fixed at the intersection of the two axes.
To determine the efficiency of forward migration during the 2-hour recording period, each cell's forward migration index (FMI) was calculated as the ratio of forward progress (net distance the cell progressed in the direction of VEGF source) to the total path length (total distance the cell traveled through the field) (Foxman et al., 1999). FMI values were negative when cells moved away from the source of VEGF. The cell speed was calculated for each lapse interval recorded during the 2-hour period.

[3] = system: subventricular zone (SVZ) explants; assay: Migration of neural progenitor cells from SVZ explants in collagen matrix
From the text: The frontal lobes of the brains of one-day-old Sprague-Dawley rat pups (Size, Zurich, Switzerland) were isolated and cut into 300 μm thick coronal sections with a McIllwain tissue chopper. From these slices the anterior part of the subventricular zone (SVZ) was microdissected. The SVZ explants were embedded in a collagen matrix and cultured for 7 days in chemically-defined serum-free medium (50% Dulbecco's modified Eagle's medium [Gibco, Berlin, […]], 50% F12, HEPES, Tris-HCl, and complemented with transferrin human 20 μg/ml, putrescine 100 μM, sodium selenite 30 nM, triiodothyronin 1 nM, docosahexaenoic acid 0.5 μg/ml, arachidonic acid 1 μg/ml, insulin 60 U/l) under 5% CO2. The medium was changed every 3rd day. For co-culture experiments, SVZ explants were cultured in the presence of murine C2C12 myoblasts that had been engineered to secret […] et al., 2001). C2C12 cells were suspended in a drop of collagen matrix which was placed at a distance of approximately 1,000 μm from the SVZ explant. As a control, mock-transfected cells of the same origin were placed into the collagen matrix in a similar manner and at the same distance, but on the opposite side of the explant. Cell migration was assessed at the end of the 7th day in culture. Three categories were established: 1, no migration: no or only a few cells emigrated from the explants; 2, symmetrical migration: numerous cells had left the explants, the distance of the migrating front of the cells exceeded 50 μm, no directionality of migration; 3, asymmetrical or directional migration: when the distance of the migrating front were at least twice that on the other side and exceeded 50 μm.

[4] = system: VEGFR-1; assay: RNase protection assay of VEGF receptor mRNA expression; conditions: 12 hours starvation of FGF-2 versus cells in FGF-2
Procedure: (§1) Neural progenitor cells at 6 days of culture in FGF-2 or after starvation of FGF-2 for 12 hours were used for RNA preparation. Total cellular RNA was purified using Trizol reagent (Invitrogen). RNase protection assays were performed using cRNA probes for rat VEGFR1 and VEGFR2 as described in Pepper et al. (2000).

[5] = system: VEGFR-2; assay: as above; conditions: 12 hours starvation of FGF-2 versus cells in FGF-2
Procedure: as §1

Row | Substance | VEGFR-2 protein expression in the presence of FGF-2 ([1]; cultured in FGF-2) | VEGFR-2 protein expression in the absence of FGF-2 ([1]; starved of FGF-2 for 12 hours) | chemotactic response to VEGF after re-addition of FGF-2 ([2]; 12-hour FGF-2 starvation, then 8-hour re-incubation with FGF-2, VEGF gradient) | chemotactic effect of FGF-2 ([2]; FGF-2 gradient, whether or not VEGF was present) | explants with migrating cells symmetrically distributed ([3]; FGF-2 (20 ng/ml), co-cultured with mock-transfected cells) | explants with symmetric migration ([3]; application of VEGF and FGF-2 together or FGF-2 alone) | level of VEGFR-1 transcripts after FGF-2 starvation [4] | level of VEGFR-2 transcripts after FGF-2 starvation [5] | directionality of migration under chemokinesis conditions ([2]; VEGF (20 ng/ml) in both inner and outer wells, FGF-2 present) | forward migration index (FMI) versus FGF-2 gradient or chemokinesis ([2]; VEGF gradient in the presence of FGF-2, 2-hour recording) | migration speed versus FGF-2 gradient or chemokinesis ([2]; VEGF gradient in the presence of FGF-2, mean over 2 hours) | chemotaxis in a VEGF gradient after FGF-2 starvation ([2]; cells at 5 days starved of FGF-2 for 12 hours, then VEGF gradient) | chemotaxis of neural progenitor cells in a VEGF gradient ([2]; gradient established with 200 ng/ml VEGF in outer well, 20 ng/ml FGF-2 in both wells, day 6 cells, 2-hour recording) | attractive effect on different coating matrices ([2]; laminin-, poly-L-lysine- or matrigel-coated coverslips) | explants with no significant cell migration ([3]; application of VEGF in the absence of FGF-2)
1 | FGF-2: fibroblast growth factor-2 (FGF-2), used at 20 ng/ml in culture medium | substantial expression | little to no expression | resume their chemotactic response; also recorded: rescued | no chemotactic effect | 10/10 | 12/12 | fivefold decrease | fivefold decrease | – | – | – | – | – | – | –
2 | VEGF | – | – | – | – | – | – | – | – | no clear preference for displacement | significantly greater | significantly greater | lose their chemotactic response; also recorded: failed to undergo chemotaxis | clear directionality of migration; also recorded: strong positive chemotaxis; also recorded: migrated efficiently toward the source of VEGF | similar | 4/4
